The text below walks through data of US20080194646A1, “Methods For Avoiding Edema in the Treatment of Metabolic, Inflammatory, and Cardiovascular Disorders” (priority 2005, published 2008).

Test [1] has as its system C57BL/6j ob/ob Mice. Put plainly: anti-diabetic activity in C57BL/6j ob/ob mice (Example 20). The format is in vivo. The note with it: oral gavage once a day for 1-4 days. Here is the method: The anti-diabetic activities of the compounds were evaluated in the C57BL/6j ob/ob Mice model. Male, 7-9 weeks old, C57BL/6J ob/ob mice were purchased from The Jackson Laboratory (Bar Harbor, Me., USA). Animals were housed (4-5 mice/cage) under standard laboratory conditions at 22±3° C. temperature and 50±20% relative humidity, and were maintained on a diet of Purina rodent chow and water ad libitum. Prior to treatment, blood was collected from the tail vein of each animal. Mice that had non-fasting plasma glucose levels between 250 and 500 mg/dl were used. Each treatment group consisted of 8-10 mice that were distributed so that the mean glucose levels were equivalent in each group at the start of the study. Mice were dosed orally by gavage once a day for 1-4 days with vehicle and one or more dose of test compound at a dose ranging from 5 to 125 mg/kg. Compounds were delivered in a liquid formulation containing 5% (v/v) dimethyl sulfoxide (DMSO), 1% (v/v) Tween 80® and 0.9% (w/v) methylcellulose. The gavage volume was 10 ml/kg. […] Food intake and body weight were measured daily. Plasma glucose concentrations were determined colorimetrically using a commercial glucose oxidase method (Sigma Chemical Co, St. Louis, Mo., USA). Significant difference between groups (comparing drug-treated to vehicle-treated) was evaluated using the Student unpaired t-test. Table 1 provides the relative potency of some selected compounds of the invention.

Test [2] relates to C57BL/6j ob/ob Mice. Put plainly: glucose lowering activity of halofenate analogs in ob/ob mice (Example 14). It counts as in vivo. The conditions noted are these: for plasma glucose concentrations vs vehicle: Student unpaired t-test; for Glucose 6 hours / Glucose 30 hours / Glucose 54 hours: plasma glucose; for Predose Glucose: baseline before dosing. Here is the method: Male, 8-9 weeks old, C57BL/6J ob/ob mice were purchased from The Jackson Laboratory (Bar Harbor, Me., USA). Animals were housed (4-5 mice/cage) under standard laboratory conditions at 22±3° C. temperature and 50±20% relative humidity, and were maintained on a diet of Purina rodent chow and water ad libitum. Prior to treatment, blood was collected from the tail vein of each animal. Mice that had non-fasting plasma glucose levels between 250 and 500 mg/dl were used. Each treatment group consisted of 8-10 mice that were distributed so that the mean glucose levels were equivalent in each group at the start of the study. Mice were dosed orally by gavage once a day for 1-3 days with either vehicle, (−) halofenic acid, (+) analog 14, 29, 33, 34, 35, 36, 37, or 38 at 125 mg/kg or (−) analog 29, 36, 37 or 38 at 150 mg/kg. Compounds were delivered in a liquid formulation containing 5% (v/v) dimethyl sulfoxide (DMSO), 1% (v/v) tween 80 and 0.9% (w/v) methylcellulose. The gavage volume was 10 ml/kg. Blood samples were taken at 6 hours after the each dose and analyzed for plasma glucose. Food intake and body weight were measured daily. Plasma glucose concentrations were determined colorimetrically using glucose oxidase method (Sigma Chemical Co, St. Louis, Mo., USA). Significant difference between groups (comparing drug-treated to vehicle-treated) was evaluated using the Student unpaired t-test.

The mark [3] stands for this setting: glucose lowering, plasma glucose 6 hours after each dose.
[4] abbreviates: 125 mg/kg oral gavage once a day for 1-3 days.
Where [5] appears, read: 125 mg/kg oral gavage once a day.
Where [6] appears, read: group later dosed 125 mg/kg orally.
Setting [7] is: 150 mg/kg oral gavage, single dose.
[8] abbreviates: group later dosed 150 mg/kg orally.

Consider `OCC(Oc1ccc(C(F)(F)F)cc1)c1ccc(C(F)(F)F)cc1` (stereo not drawn) [Compound 128], for which, in test [1] (setting [3]), the Potency result is listed as “++ (effective for glucose lowering at the dose of ≦125 mg/kg)”. Further, the “Insulin Level compared with vehicle” value in test [1] was “Lower”.

In the case of `O=C(O)C(Oc1ccc(C(F)(F)F)cc1)c1cccc(C(F)(F)F)c1` (stereo not drawn) [(+)−39, (4-trifluoromethyl-phenoxy)-(3-trifluoromethyl-phenyl)-acetic acid], the minimal effective dose in test [1] (Mus musculus, glucose lowering, plasma glucose 6 hours after each dose, read-out: Potency) was ≤ 125 mg/kg.

`O=C(O)C(Oc1cc(C(F)(F)F)cc(C(F)(F)F)c1)c1ccc(C(F)(F)F)cc1` (stereo not drawn) [Compound 81]: the “Insulin Level compared with vehicle” value in test [1] is on record as “Lower”.

Take `CC(=O)NCCOC(=O)C(Oc1cccc(C(F)(F)F)c1)c1ccc(Br)cc1` (racemic) [(±)Analog 29]: the “plasma glucose concentrations vs vehicle” value in test [2] (setting [4]) was “significantly lowered plasma glucose concentrations at 6, 30 and 54 hours”. In test [2] (setting [5]), the “Glucose 6 hours” value was determined as 299.7 ± 24.5 mg/dL, the “Glucose 30 hours” value was found to be 237.4 ± 14.9 mg/dL and the “Glucose 54 hours” value turned out to be 293.3 ± 9.7 mg/dL. For the same molecule, the “Predose Glucose” value in test [2] (setting [6]) came out at 387.1 ± 16.0 mg/dL.

As for `O=C(O)C(Oc1ccc(C(F)(F)F)cc1)c1cccc(C(F)(F)F)c1` (stereo not drawn) [(−)−39, (4-trifluoromethyl-phenoxy)-(3-trifluoromethyl-phenyl)-acetic acid], in test [1] (setting [3]), the Potency entry was “++ (effective for glucose lowering at the dose of ≦125 mg/kg)”. The “Insulin Level compared with vehicle” value in test [1] is recorded as “Lower”.

As for `NC(=O)COC(=O)C(Oc1cccc(C(F)(F)F)c1)c1ccc(Cl)cc1` (racemic) [(±)Analog 37], the “plasma glucose concentrations vs vehicle” value in test [2] (setting [4]) is on record as “significantly lowered plasma glucose concentrations at 54 hours”. Also, in test [2] (setting [5]), the “Glucose 6 hours” value was 345.4 ± 19.7 mg/dL, the “Glucose 30 hours” value stood at 312.5 ± 21.7 mg/dL and the “Glucose 54 hours” value came to 285.1 ± 14.7 mg/dL. Besides, in test [2] (setting [6]), the “Predose Glucose” value is 387.4 ± 18.8 mg/dL.

For `O=C(O)C(Oc1cccc(C(F)(F)F)c1)c1ccc(C(F)(F)F)cc1` (stereo not drawn) [Compound 86], the “Insulin Level compared with vehicle” value in test [1] was “Lower”.

As for `O=C(NCCOC(=O)C(Oc1cccc(C(F)(F)F)c1)c1ccc(Cl)cc1)c1ccccc1` (single isomer, unassigned; (-)) [(−)Analog 36], in test [2] (setting [7]), the “plasma glucose concentrations vs vehicle” value is given as “significantly reduced plasma glucose concentrations at 6 hours” and the “Glucose 6 hours” value was determined as 281.1 ± 18.2 mg/dL. Also, in test [2] (setting [8]), the “Predose Glucose” value worked out at 373.2 ± 15.5 mg/dL.

For `CN(C)C(=O)COC(=O)C(Oc1cccc(C(F)(F)F)c1)c1ccc(Cl)cc1` (racemic) [(±)Analog 38], in test [2] (setting [4]), the “plasma glucose concentrations vs vehicle” value was “significantly lowered plasma glucose concentrations at 6, 30 and 54 hours”. In addition, in test [2] (setting [5]), the “Glucose 6 hours” value is 303.2 ± 18.2 mg/dL, the “Glucose 30 hours” value stood at 245.6 ± 15.6 mg/dL and the “Glucose 54 hours” value came out at 243.1 ± 10.6 mg/dL. The “Predose Glucose” value in test [2] (setting [6]) came out at 329.4 ± 18.9 mg/dL.

As for `CN(C)CCOC(=O)C(Oc1cccc(C(F)(F)F)c1)c1ccc(Cl)cc1` (racemic) [(±)Analog 35], the “plasma glucose concentrations vs vehicle” value in test [2] (setting [4]) was “significantly lowered plasma glucose concentrations at 30 and 54 hours”. Moreover, in test [2] (setting [5]), the “Glucose 6 hours” value came out at 319.6 ± 26.7 mg/dL, the “Glucose 30 hours” value stood at 276.8 ± 17.6 mg/dL and the “Glucose 54 hours” value came to 286.2 ± 31.5 mg/dL. The “Predose Glucose” value in test [2] (setting [6]) came out at 387.0 ± 18.0 mg/dL.

With `CC(=O)NCCOC(=O)C(Oc1cccc(C(F)(F)F)c1)c1ccc(F)cc1` (racemic) [(±)Analog 14], the “plasma glucose concentrations vs vehicle” value in test [2] (setting [4]) was “significantly lowered plasma glucose concentrations at 6, 30 and 54 hours”. In test [2] (setting [5]), the “Glucose 6 hours” value amounted to 328.9 ± 34.1 mg/dL, the “Glucose 30 hours” value was determined as 267.0 ± 21.3 mg/dL and the “Glucose 54 hours” value stood at 293.0 ± 29.4 mg/dL. Besides, the “Predose Glucose” value in test [2] (setting [6]) came out at 361.0 ± 17.1 mg/dL.

As to `O=C(O)C(Oc1ccc(C(F)(F)F)cn1)c1cccc(C(F)(F)F)c1` (stereo not drawn) [Compound 100, (3-Trifluoromethyl-phenyl)-(5-trifluoromethyl-pyridin-2-yloxy)-acetic acid], the “Insulin Level compared with vehicle” value in test [1] is listed as “Lower”.

Turning to `CC(=O)NCCOC(=O)C(Oc1ccccc1C(F)(F)F)c1ccc(C(F)(F)F)cc1` (stereo not drawn) [Compound 146], the “Insulin Level compared with vehicle” value in test [1] was “Lower”.

As for `CC(=O)NCCOC(=O)C(Oc1cccc(C(F)(F)F)c1)c1ccc(C(F)(F)F)cc1` (stereo not drawn) [Compound 142], the “Insulin Level compared with vehicle” value in test [1] is “Lower”.

With `CC(=O)NCCOC(=O)C(Oc1cccc(C(F)(F)F)c1)c1ccccc1C(F)(F)F` (stereo not drawn) [Compound 147], the “Insulin Level compared with vehicle” value in test [1] was “Lower”.

Take `O=C(O)C(Oc1ccc(C(F)(F)F)cc1Cl)c1cccc(C(F)(F)F)c1` (stereo not drawn) [Compound 85]: in test [1] (setting [3]), the Potency entry is given as “++ (effective for glucose lowering at the dose of ≦125 mg/kg)”. The “Insulin Level compared with vehicle” value in test [1] is given as “Lower”.

For `CN(C)C(=O)COC(=O)C(Oc1cccc(C(F)(F)F)c1)c1ccc(Cl)cc1` (single isomer, unassigned; (-)) [(−)Analog 38], in test [2] (setting [7]), the “plasma glucose concentrations vs vehicle” value is reported as “significantly reduced plasma glucose concentrations at 6 hours” and the “Glucose 6 hours” value is 251.2 ± 23.6 mg/dL. Moreover, in test [2] (setting [8]), the “Predose Glucose” value was 373.4 ± 16.1 mg/dL.

Take `O=C(O)C(Oc1ccc(C(F)(F)F)cc1)c1ccc(C(F)(F)F)cc1` (stereo not drawn) [Compound 83]: the Potency result in test [1] (setting [3]) is “++ (effective for glucose lowering at the dose of ≦125 mg/kg)”. Moreover, the “Insulin Level compared with vehicle” value in test [1] is reported as “Lower”.

As to `CC(Oc1ccc(C(F)(F)F)cc1)(C(=O)O)c1ccc(C(F)(F)F)cc1` (stereo not drawn) [Compound 121, 2-(4-Trifluoromethyl-phenoxy)-2-(4-trifluoromethyl-phenyl)-propionic acid], the “Insulin Level compared with vehicle” value in test [1] is recorded as “Lower”.

For the molecule `O=C(NCCOC(=O)C(Oc1cccc(C(F)(F)F)c1)c1ccc(Cl)cc1)c1ccccc1` (racemic) [(±)Analog 36], the “plasma glucose concentrations vs vehicle” value in test [2] (setting [4]) is “significantly lowered plasma glucose concentrations at 30 and 54 hours”. Besides, in test [2] (setting [5]), the “Glucose 6 hours” value is 300.5 ± 27.3 mg/dL, the “Glucose 30 hours” value was determined as 249.7 ± 8.6 mg/dL and the “Glucose 54 hours” value amounted to 272.2 ± 18.4 mg/dL. Further, in test [2] (setting [6]), the “Predose Glucose” value turned out to be 329.7 ± 17.6 mg/dL.

For `CC(Oc1ccc(C(F)(F)F)cc1)(C(=O)O)c1cccc(C(F)(F)F)c1` (stereo not drawn) [Compound 120, 2-(4-trifluoromethyl-phenoxy)-2-(3-trifluoromethyl-phenyl)-propionic acid], in test [1], the “Insulin Level compared with vehicle” value is recorded as “Lower”.

Regarding `CC(=O)NCCOC(=O)C(Oc1cccc(C(F)(F)F)c1)c1cccc(C(F)(F)F)c1` (stereo not drawn) [Compound 144], in test [1], the “Insulin Level compared with vehicle” value is given as “Lower”.

In the case of `CC(=O)NCCOC(=O)C(Oc1ccc(C(F)(F)F)cc1)c1cccc(C(F)(F)F)c1` (stereo not drawn) [Compound 136, (4-trifluoromethyl-phenoxy)-(3-trifluoromethyl-phenyl)-acetic acid 2-acetylamino-ethyl ester], in test [1], the “Insulin Level compared with vehicle” value is listed as “Lower”.

Turning to `CC(=O)NCCOC(=O)C(Oc1cccc(C(F)(F)F)c1)c1ccc(Br)cc1` (single isomer, unassigned; (-)) [(−)Analog 29], in test [2] (setting [7]), the “plasma glucose concentrations vs vehicle” value is recorded as “significantly reduced plasma glucose concentrations at 6 hours” and the “Glucose 6 hours” value was 333.5 ± 16.1 mg/dL. Moreover, the “Predose Glucose” value in test [2] (setting [8]) was found to be 372.2 ± 17.1 mg/dL.

Regarding `CCCCOC(=O)C(Oc1cccc(C(F)(F)F)c1)c1ccc(Cl)cc1` (racemic) [(±)Analog 33], the “plasma glucose concentrations vs vehicle” value in test [2] (setting [4]) is “significantly lowered plasma glucose concentrations at 6 and 54 hours”. Moreover, in test [2] (setting [5]), the “Glucose 6 hours” value was found to be 227.5 ± 13.2 mg/dL, the “Glucose 30 hours” value came out at 298.0 ± 15.3 mg/dL and the “Glucose 54 hours” value was determined as 286.6 ± 9.9 mg/dL. In test [2] (setting [6]), the “Predose Glucose” value turned out to be 292.0 ± 19.1 mg/dL.

As for `NC(=O)COC(=O)C(Oc1cccc(C(F)(F)F)c1)c1ccc(Cl)cc1` (single isomer, unassigned; (-)) [(−)Analog 37], in test [2] (setting [7]), the “plasma glucose concentrations vs vehicle” value is listed as “significantly reduced plasma glucose concentrations at 6 hours” and the “Glucose 6 hours” value was determined as 271.7 ± 22.5 mg/dL. In addition, the “Predose Glucose” value in test [2] (setting [8]) worked out at 373.4 ± 16.1 mg/dL.
